Source: patent publication US12544375B2, “Small molecule therapeutic for parkinson's disease paired with a biomarker of therapeutic activity” (The Board of Trustees of the Leland Stanford Junior …, priority 2019, dated 2026)

Target: T1, Miro1 (Homo sapiens, UniProt Q8IXI2)
T1 construct: We applied compound 3 to fibroblasts from one sporadic PD patient (PD-2); endogenous in cells; host or cells: human skin fibroblasts (PD-2, Healthy-1 and further PD/control lines)
Assay: Miro1 response to CCCP in PD fibroblasts, Western blotting
Format: cell-based
Protocol: FIG. 2A-FIG. 2F. Miro1 Reducer Eliminates the Miro1 Defect in PD Fibroblasts. (FIG. 2A) Chemical properties of Miro1 Reducer. (FIG. 2B) Wild-type flies (w^1118) were fed with DMSO alone (0 μM Miro1 Reducer) or Miro1 Reducer in DMSO at 250 μM for 7 days, and lysed and blotted as indicated. The band intensities are normalized to those of Tubulin from the same blots. n=4. (FIG. 2C-FIG. 2E) Fibroblasts were treated, lysed, and blotted as indicated. (FIG. 2C) Band intensities are normalized to those of GAPDH from the same blots and compared to “Healthy-1, no treatment” except otherwise indicated. n=4. (FIG. 2D) Band intensities are normalized to those of ATP5β from the same blots and expressed as a percentage of the mean of “0 μM Miro1 Reducer with CCCP”. Mean±S.E.M is shown. n=3. (FIG. 2E) Band intensities are normalized to those of GAPDH from the same blots and compared to “Healthy-1, no CCCP, no MG132” except otherwise indicated. n=4. (FIG. 2F) Healthy-1 and PD-2 fibroblasts were transfected as indicated, and immunostained with anti-Myc (Miro1, green) and stained with Dapi (blue). The Miro1 intensity is normalized to that of mito-dsRed from the same cell and quantified across 37-62 cells from 5 fields each transfection, 3 independent transfections. Scale bars: 50 μm. For (FIG. 2C-FIG. 2F), both CCCP and Miro1 Reducer were dissolved in DMSO. Cells were pretreated with Miro1 Reducer 24 hrs before the application of CCCP for another 6 hrs. The same volume of DMSO was applied at the same time in negative controls.
FIG. 3A-FIG. 3D. Miro1 Reducer Rescues Parkinson's Neurodegeneration. (FIG. 3A) Fibroblasts were treated, lysed, and blotted as indicated. Band intensities are normalized to those of ATP5β from the same blots and compared to “Healthy-2, no treatment”. n=4. (FIG. 3B-FIG. 3C) iPSC-derived neurons were treated as indicated and immunostained with anti-TH (FIG. 3B) or stained with PI and Dapi (FIG. 3C). Both Antimycin A and Miro1 Reducer were dissolved in ethanol. Neurons were pretreated with Miro1 Reducer 24 hrs before the application of Antimycin A for another 6 hrs. The same volume of ethanol was applied at the same time in negative controls. (FIG. 3B) The density of TH-positive neurons is calculated in each condition under 20×, from 10 fields each experiment, 3-4 experiments. […] (FIG. 3C) The percentage of PI-positive cells out of total cells (Dapi-positive) is calculated. n=20 fields each experiment, 4 experiments. […] Graphs of Mean±S.E.M show the percent of time each mitochondrion is in motion (red and blue, compared to “Wild-type-I, before treatment”), and the mitochondrial intensity normalized to that of the same axonal region at “0 min” and expressed as a fraction of the mean of “Wild-type-I, 0 min”. n=33-77 mitochondria from 5-8 axons from 5-8 separate transfections. […]

T1 sequence (Q8IXI2 whole entry): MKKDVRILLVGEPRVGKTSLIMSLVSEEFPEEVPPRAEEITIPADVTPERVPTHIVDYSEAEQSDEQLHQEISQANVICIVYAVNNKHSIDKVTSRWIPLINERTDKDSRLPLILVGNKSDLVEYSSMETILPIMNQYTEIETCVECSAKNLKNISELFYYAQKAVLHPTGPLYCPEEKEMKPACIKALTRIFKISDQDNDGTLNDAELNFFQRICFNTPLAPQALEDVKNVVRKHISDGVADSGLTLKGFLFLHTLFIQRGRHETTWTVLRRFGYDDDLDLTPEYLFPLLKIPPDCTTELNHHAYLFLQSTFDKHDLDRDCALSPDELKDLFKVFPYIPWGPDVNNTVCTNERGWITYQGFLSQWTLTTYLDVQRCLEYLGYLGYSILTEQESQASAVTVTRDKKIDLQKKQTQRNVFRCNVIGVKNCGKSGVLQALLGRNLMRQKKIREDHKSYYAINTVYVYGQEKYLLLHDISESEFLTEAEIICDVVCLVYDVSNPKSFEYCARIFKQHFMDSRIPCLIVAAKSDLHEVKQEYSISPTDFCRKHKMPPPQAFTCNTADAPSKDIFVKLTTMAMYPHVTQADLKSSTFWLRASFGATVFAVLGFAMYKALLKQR

In the case of `O=C(Nc1ccc(Nc2cc(-n3ccnc3)ncn2)cc1)Nc1cccc(F)c1` [Miro1 Reducer], the “Miro1 degradation following CCCP treatment” value (PD-2 fibroblasts, 10 μM for 30 hrs, CCCP 6 hrs) is reported as “robustly promoted Miro1 degradation”, the “reduction of Miro1 protein in presence of proteasome inhibitor MG132” value (PD-2 fibroblasts, following CCCP treatment) is reported as “blocked by the proteasome inhibitor MG132” and the “Miro1 degradation after depolarization in additional lines” value (additional 4 control and 4 sporadic PD fibroblast cell lines) is reported as “same beneficial change of Miro1 degradation after depolarization”. It also gave an IC50 (fibroblasts pretreated 24 hrs, then CCCP 6 hrs, FIG. 2D, read-out: Miro1 protein levels, dose-dependent response (IC50)) of 7.8 µM.
